US20220315621A1, “COMPOSITIONS AND METHODS FOR TREATING CNS DISORDERS” (priority 2017, published 2022)

Biological target: GABAA receptor (rat brain cortical membranes, [35S]-TBPS binding)
Details: Table I-4; rat brain cortical membranes, 3 nM [35S]-TBPS, in the presence of 5 mM GABA

| Compound | IC50 [nM] |
| --- | --- |
| C[C@]12CC[C@H]3[C@@H](CC[C@@H]4C[C@H](O)CC[C@@H]43)[C@@H]1CC[C@H](C(=O)Nc1ccccc1)C2 (single isomer, unassigned) [I-R24] | 1000 to 10000 |
| C[C@@]1(O)CC[C@H]2[C@H](CC[C@@H]3[C@@H]2CC[C@]2(C)[C@@H](Nc4ccc(C#N)cc4)CCC[C@@H]32)C1 [Compound I-7, 4-(((1S,4aS,4bR,6aR,8R,10aS,10bR,12aS)-8-hydroxy-8,12a-dimethyloctadecahydrochrysen-1-yl)amino)benzonitrile] | 10 to 100 |
| C[C@@]1(O)CC[C@H]2[C@H](CC[C@@H]3[C@@H]2CC[C@]2(C)[C@@H](Nc4ccc(Cl)cc4)CCC[C@@H]32)C1 [Compound I-8, (2R,4aS,4bR,6aS,7S,10aS,10bR,12aR)-7-((4-chlorophenyl)amino)-2,6a-dimethyloctadecahydrochrysen-2-ol] | 10 to 100 |
| C[C@@]1(O)CC[C@H]2[C@H](CC[C@@H]3[C@@H]2CC[C@]2(C)[C@@H](Nc4cccc(Cl)c4)CCC[C@@H]32)C1 [Compound I-9, (2R,4aS,4bR,6aS,7S,10aS,10bR,12aR)-7-((3-chlorophenyl)amino)-2,6a-dimethyloctadecahydrochrysen-2-ol] | 10 to 100 |
| C[C@@]1(O)CC[C@H]2[C@H](CC[C@@H]3[C@@H]2CC[C@]2(C)[C@@H](Nc4cccc(C#N)c4)CCC[C@@H]32)C1 [Compound I-10, 3-(((1S,4aS,4bR,6aR,8R,10aS,10bR,12aS)-8-hydroxy-8,12a-dimethyloctadecahydrochrysen-1-yl)amino)benzonitrile] | 10 to 100 |
| C[C@@]1(O)CC[C@H]2[C@H](CC[C@@H]3[C@@H]2CC[C@]2(C)[C@H](Nc4cccc(C#N)c4)CCC[C@@H]32)C1 [Compound I-10a, 3-(((1R,4aS,4bR,6aR,8R,10aS,10bR,12aS)-8-hydroxy-8,12a-dimethyloctadecahydrochrysen-1-yl)amino)benzonitrile] | 100 to 1000 |
| C[C@@]1(O)CC[C@H]2[C@H](CC[C@@H]3[C@@H]2CC[C@]2(C)[C@@H](Nc4ccc(F)cc4)CCC[C@@H]32)C1 [Compound I-11, (2R,4aS,4bR,6aS,7S,10aS,10bR,12aR)-7-((4-fluorophenyl)amino)-2,6a-dimethyloctadecahydrochrysen-2-ol] | 100 to 1000 |
| C[C@@]1(O)CC[C@H]2[C@H](CC[C@@H]3[C@@H]2CC[C@]2(C)[C@H](Nc4ccc(F)cc4)CCC[C@@H]32)C1 [Compound I-11a, (2R,4aS,4bR,6aS,7R,10aS,10bR,12aR)-7-((4-fluorophenyl)amino)-2,6a-dimethyloctadecahydrochrysen-2-ol] | 1000 to 10000 |
| C[C@@]1(O)CC[C@H]2[C@H](CC[C@@H]3[C@@H]2CC[C@]2(C)[C@@H](Nc4cccc(F)c4)CCC[C@@H]32)C1 [Compound I-12, (2R,4aS,4bR,6aS,7S,10aS,10bR,12aR)-7-((3-fluorophenyl)amino)-2,6a-dimethyloctadecahydrochrysen-2-ol] | 10 to 100 |
| C[C@@]1(O)CC[C@H]2[C@H](CC[C@@H]3[C@@H]2CC[C@]2(C)[C@@H](C(=O)NCc4ccccc4)CCC[C@@H]32)C1 [Compound I-14, (1S,4aS,4bR,6aR,8R,10aS,10bR,12aS)-N-benzyl-8-hydroxy-8,12a-dimethyloctadecahydrochrysene-1-carboxamide] | 10 to 100 |
| C[C@@]1(O)CC[C@H]2[C@H](CC[C@@H]3[C@@H]2CC[C@]2(C)[C@@H](C(=O)Nc4ccccc4)CCC[C@@H]32)C1 [Compound I-15, (1S,4aS,4bR,6aR,8R,10aS,10bR,12aS)-8-hydroxy-8,12a-dimethyl-N-phenyloctadecahydrochrysene-1-carboxamide] | 10 to 100 |
| CCN(CC)C(=O)[C@H]1CCC[C@H]2[C@@H]3CC[C@@H]4C[C@](C)(O)CC[C@@H]4[C@H]3CC[C@]12C [Compound I-16, (1S,4aS,4bR,6aR,8R,10aS,10bR,12aS)-N,N-diethyl-8-hydroxy-8,12a-dimethyloctadecahydrochrysene-1-carboxamide] | 1000 to 10000 |
| C[C@@]1(O)CC[C@H]2[C@H](CC[C@@H]3[C@@H]2CC[C@]2(C)[C@@H](C(=O)NCc4ccccn4)CCC[C@@H]32)C1 [Compound I-17, (1S,4aS,4bR,6aR,8R,10aS,10bR,12aS)-8-hydroxy-8,12a-dimethyl-N-(pyridin-2-ylmethyl)octadecahydrochrysene-1-carboxamide] | 10 to 100 |
| Cc1nnn(CC(=O)[C@H]2CCC[C@H]3[C@@H]4CC[C@@H]5C[C@](C)(O)CC[C@]5(C)[C@H]4CC[C@]23C)n1 [Compound I-20, 1-((1S,4aS,4bR,6aR,8R,10aS,10bS,12aS)-8-hydroxy-8,10a,12a-trimethyloctadecahydrochrysen-1-yl)-2-(5-methyl-2H-tetrazol-2-yl)ethan-1-one] | 100 to 1000 |
| Cc1nnnn1CC(=O)[C@H]1CCC[C@H]2[C@@H]3CC[C@@H]4C[C@](C)(O)CC[C@]4(C)[C@H]3CC[C@]12C [Compound I-20a, 1-((1S,4aS,4bR,6aR,8R,10aS,10bS,12aS)-8-hydroxy-8,10a,12a-trimethyloctadecahydrochrysen-1-yl)-2-(5-methyl-1H-tetrazol-1-yl)ethan-1-one] | 100 to 1000 |
| COC[C@@]1(O)CC[C@H]2[C@@H](CC[C@@H]3[C@@H]2CC[C@]2(C)[C@@H](Nc4ccc(F)cc4)CCC[C@@H]32)C1 [Compound I-23, (2R,4aS,4bR,6aS,7S,10aS,10bR,12aS)-7-((4-fluorophenyl)amino)-2-(methoxymethyl)-6a-methyloctadecahydrochrysen-2-ol] | 10 to 100 |
| COC[C@@]1(O)CC[C@H]2[C@@H](CC[C@@H]3[C@@H]2CC[C@]2(C)[C@H](Nc4ccc(F)cc4)CCC[C@@H]32)C1 [Compound I-23a, (2R,4aS,4bR,6aS,7R,10aS,10bR,12aS)-7-((4-fluorophenyl)amino)-2-(methoxymethyl)-6a-methyloctadecahydrochrysen-2-ol] | 1000 to 10000 |
| COC[C@@]1(O)CC[C@H]2[C@@H](CC[C@@H]3[C@@H]2CC[C@]2(C)[C@@H](C(=O)NCc4ccccc4)CCC[C@@H]32)C1 [Compound I-25, (1S,4aS,4bR,6aS,8R,10aS,10bR,12aS)-N-benzyl-8-hydroxy-8-(methoxymethyl)-12a-methyloctadecahydrochrysene-1-carboxamide] | 10 to 100 |
| COC[C@@]1(O)CC[C@H]2[C@@H](CC[C@@H]3[C@@H]2CC[C@]2(C)[C@@H](C(=O)NCc4ccccn4)CCC[C@@H]32)C1 [Compound I-26, (1S,4aS,4bR,6aS,8R,10aS,10bR,12aS)-8-hydroxy-8-(methoxymethyl)-12a-methyl-N-(pyridin-2-ylmethyl)octadecahydrochrysene-1-carboxamide] | 100 to 1000 |
| COC[C@@]1(O)CC[C@H]2[C@@H](CC[C@@H]3[C@@H]2CC[C@]2(C)[C@@H](C(=O)Nc4ccccc4)CCC[C@@H]32)C1 [Compound I-27, (1S,4aS,4bR,6aS,8R,10aS,10bR,12aS)-8-hydroxy-8-(methoxymethyl)-12a-methyl-N-phenyloctadecahydrochrysene-1-carboxamide] | 10 to 100 |
| CCOC[C@@]1(O)CC[C@H]2[C@@H](CC[C@@H]3[C@@H]2CC[C@]2(C)[C@@H](O)CCC[C@@H]32)C1 [Compound I-39, (1S,4aS,4bR,6aS,8R,10aS,10bR,12aS)-8-(ethoxymethyl)-12a-methyloctadecahydrochrysene-1,8-diol] | 1000 to 10000 |
| CCOC[C@@]1(O)CC[C@H]2[C@@H](CC[C@@H]3[C@@H]2CC[C@]2(C)[C@@H](OC)CCC[C@@H]32)C1 [Compound I-40, (2R,4aS,4bR,6aS,7S,10aS,10bR,12aS)-2-(ethoxymethyl)-7-methoxy-6a-methyloctadecahydrochrysen-2-ol] | 100 to 1000 |
| C[C@@H]1CC[C@H]2[C@@H]3CC[C@@H]4C[C@](C)(O)CC[C@@H]4[C@H]3CC[C@]2(C)C1=O [Compound I-50, (2R,4aS,4bR,6aR,8R,10aS,10bR,12aS)-8-hydroxy-2,8,12a-trimethylhexadecahydrochrysen-1(2H)-one] | 1000 to 10000 |
| COC[C@@]1(O)CC[C@H]2[C@H](CC[C@@H]3[C@@H]2CC[C@]2(C)C(=O)[C@H](C)CC[C@@H]32)C1 [Compound I-53, (2R,4aS,4bR,6aR,8R,10aS,10bR,12aS)-8-hydroxy-8-(methoxymethyl)-2,12a-dimethylhexadecahydrochrysen-1(2H)-one] | 1000 to 10000 |

Same assay, conditions: Table I-5; rat brain cortical membranes, 3 nM [35S]-TBPS, in the presence of 5 mM GABA

| Compound | IC50 [nM] |
| --- | --- |
| CC(=O)[C@H]1C[C@H]2[C@@H]3CC[C@@H]4C[C@](C)(O)CC[C@]4(C)[C@H]3CC[C@]12C [Compound I-103, 1-((1S,2aS,2bR,4aR,6R,8aS,8bS,10aS)-6-hydroxy-6,8a,10a-trimethylhexadecahydrocyclobuta[a]phenanthren-1-yl)ethan-1-one] | 100 to 1000 |
| CC(=O)[C@@H]1C[C@H]2[C@@H]3CC[C@@H]4C[C@](C)(O)CC[C@]4(C)[C@H]3CC[C@]12C [Compound I-103a, 1-((1R,2aS,2bR,4aR,6R,8aS,8bS,10aS)-6-hydroxy-6,8a,10a-trimethylhexadecahydrocyclobuta[a]phenanthren-1-yl)ethan-1-one] | 1000 to 10000 |
| C[C@@]1(O)CC[C@H]2[C@H](CC[C@@H]3[C@@H]2CC[C@]2(C)[C@H](C(=O)Cn4cc(C#N)cn4)C[C@@H]32)C1 [Compound I-105, 1-(2-((1R,2aS,2bR,4aR,6R,8aS,8bR,10aS)-6-hydroxy-6,10a-dimethylhexadecahydrocyclobuta[a]phenanthren-1-yl)-2-oxoethyl)-1H-pyrazole-4-carbonitrile] | 1000 to 10000 |
